Measurements: patent US20230119759A1, “PHARMACEUTICAL COMBINATION COMPRISING PYRIDINO[1,2-A]PYRIMIDINONE COMPOUND” (CHIA TAI TIANQING PHARMACEUTICAL GROUP CO., LTD., priority 2020, published 2023)

Test system: BT-474 xenograft tumor
Assay: Human breast cancer (BT-474) xenograft tumor model in nude mice
Type: in vivo, BALB/c female nude mice
Conditions: for Mean tumor volume (day 28) / T/C / TGI: day 28; for Mean tumor volume (day 0): day 0 (start of treatment, baseline)
Description: BALB/c female nude mice (provided by Shanghai Sippr-BK Lab. Animal Co., Ltd.), SPF-grade, weight 18-25 g, aged about 8 weeks (tumor-bearing). Human breast cancer BT-474 cells (ATCC) were cultured in Hybri-Care medium containing 10% fetal bovine serum, 100 U/mL penicillin and […] in vitro monolayer culture at 37° C./5% CO2. The cells were digested with trypsin-EDTA twice a week for passaging as per conventional practice. When cell confluence was 80%-90%, the cells were collected, counted, and inoculated. Estrogen tablets were implanted 3 days before cell inoculation, 0.2 mL of BT-474 cells (1×10^7) were subcutaneously inoculated on the right back of each mouse, and grouping and administration was initiated when the mean tumor volume reached 127.19 mm^3. The compound of formula I was dissolved in a vehicle: 0.01 mol/L HCl solution, 0.5% methylcellulose and deionized water were mixed well in a volume ratio of 20:30:100.
The tumor volume was calculated using the following formula: V=0.5a×b^2, where a and b represent the long diameter and short diameter of the tumor, respectively. The percentage value of TIC (%) reflects the tumor growth inhibition rate, and where T and C represent the tumor weight (tumor volume) of the treatment groups and the control group, respectively, on a certain day.
The tumor growth inhibition rate was calculated using the following formula: TGI (%)=[1−(Ti−T0)/(Vi−V0)]×100, where Ti is the mean tumor volume of a certain treatment group on a certain day, T0 is the mean tumor volume of the treatment group at the start of treatment, Vi is the mean tumor volume of the vehicle control group on a certain day (same day as Ti) and V0 is the mean tumor volume of the vehicle control group at the start of treatment. Tumor weights were measured at the end of treatment and percentage Tweight/Cweight was calculated, where Tweight and Cweight represent the tumor weights of the treatment and vehicle control groups, respectively.

[1] = 1 mg/kg orally once daily for 28 days
[2] = 2 mg/kg orally once daily for 28 days
[3] = 4 mg/kg orally once daily for 28 days

Compound: COc1ncc(-c2ccc3ncc(OCCN(C)C)c(=O)n3c2)cc1NS(=O)(=O)c1ccc(F)cc1Cl [Compound of formula I]
- Mean tumor volume (day 28) [1]: 223 ± 50 mm^3
- T/C [1]: 56.09%
- TGI [1]: 64.56%
- Mean tumor volume (day 0) (1 mg/kg orally once daily): 127 ± 11 mm^3
- Mean tumor volume (day 28) [2]: 159 ± 36 mm^3
- T/C [2]: 40.11%
- TGI [2]: 88.10%
- Mean tumor volume (day 0) (2 mg/kg orally once daily): 127 ± 11 mm^3
- Mean tumor volume (day 28) [3]: 145 ± 40 mm^3
- T/C [3]: 36.52%
- TGI [3]: 93.35%
- Mean tumor volume (day 0) (4 mg/kg orally once daily): 127 ± 11 mm^3
- anti-tumor efficacy (in words) (BT-474 xenograft tumor model, 1-4 mg/kg orally): significant anti-tumor efficacy
